Measured values reported in US12466807B2, “Salt and crystal form of a FAK inhibitor” (Amplia Therapeutics Limited, priority 2019, dated 2025).
“Also recorded” adds a separate entry of the source.

Columns and labels:
Type in all cases: physicochemical
7-day stability study = conditions: for XRPD / HPLC Purity: 1 week; for HPLC Purity: input purity 99.8%
Description: 7-day stability tests were carried out as follows: • Approximately 10-20 mg of Formula I L-tartrate Pattern 1 was placed at either 40° C./75% RH, 80° C. or under ambient light and temperature for 1 week. The resulting solids were analyzed by XRPD to assess the physical stability and HPLC to assess the chemical stability.

[1] = Salt disproportionation studies; conditions: for XRPD Result: solid after 24 h in deionized water
Description: Salt disproportionation studies were carried out as follows: • Approximately 10-20 mg of Formula I free base, L-tartrate Pattern 1 were weighed into HPLC vials. • 1 mL deionized water was then added to each vial and the vials capped and shaken at ambient temperature for 24 hours. • After this time, the samples were transferred to centrifuge tubes with nylon filters (0.22 μm) and centrifuged for approximately 15 minutes. The isolated solids were analyzed by XRPD and the filtrates analyzed by HPLC for concentration determination and the pH of all the filtrates were measured with a pH meter.

[2] = Thermodynamic solubility studies; conditions: for HPLC Conc: ca. 22° C.
Description: Thermodynamic Solubility Studies were carried out as follows: • Approximately 10 mg of Formula I free base Pattern 1 and L-tartrate Pattern 1, were weighed into a 1.5 mL screw-cap vial. The appropriate buffer system was added to create a slurry and the vials were shaken at ambient temperature (ca. 22° C.) for approximately 24 hours. • After this time, the slurries were transferred to centrifuge tubes containing nylon filters (0.22 μm) and filtered using a centrifuge for ca. 10 minutes. The isolated solids were then analyzed by XRPD and the filtrates measured by a pH meter and analyzed by HPLC for concentration.

Hydration studies = conditions: 24 h
Description: Hydration studies were carried out as follows: • Approximately 10-20 mg of Formula I free base, L-tartrate Pattern 1, were weighed into 1.5 mL vials. • Water/acetone mixtures were prepared to give water activities of 0.281, 0.637 and 0.888. • The appropriate water/acetone mixture was then added to each vial to form a slurry and the vials capped and shaken at ambient temperature for 24 hours. • After this time, the slurries were transferred to centrifuge tubes containing nylon filters (0.22 μm) and centrifuged for 15 minutes. The isolated solids were analyzed by XRPD.

[3] = Dynamic/gravimetric vapour sorption (DVS/GVS) hygroscopicity; conditions: for Hygroscopicity, mass uptake (DVS/GVS): at 90% R.H., 25° C.
Description: Approximately 10-20 mg of sample was placed into a mesh vapour sorption balance pan and loaded into the DVS-1 dynamic vapour sorption balance by Surface Measurement Systems. The sample was subjected to a ramping profile from 40-90% relative humidity (RH) at 10% increments, maintaining the sample at each step until a stable weight had been achieved (dm/dt 0.004%, minimum step length 30 minutes, maximum step length 500 minutes) at 25° C. After completion of the sorption cycle, the sample was dried using the same procedure to 0% RH and then a second sorption cycle back to 40% RH. Two cycles were performed. The weight change during the sorption/desorption cycles were plotted, allowing for the hygroscopic nature of the sample to be determined. XRPD analysis was then carried out on any solid retained.
Approximately 10-20 mg of sample was placed into a mesh vapour sorption balance pan and loaded into an IGASorp Moisture Sorption Analyser balance by Hiden Analytical. The sample was subjected to a ramping profile from 40-90% relative humidity (RH) at 10% increments, maintaining the sample at each step until a stable weight had been achieved (98% step completion, minimum step length 30 minutes, maximum step length 60 minutes) at 25° C. After completion of the sorption cycle, the sample was dried using the same procedure to 0% RH, and finally taken back to the starting point of 40% RH. Two cycles were performed. The weight change during the sorption/desorption cycles were plotted, allowing for the hygroscopic nature of the sample to be determined.

[4] = listed as Formula I L-tartrate Pattern 1

With `COc1cc(C2CCN(C)CC2)ccc1Nc1ncc(C(F)(F)F)c(CCc2ccccc2CC(N)=O)n1` [L-Tartrate] the XRPD (7-day stability study; 40° C./75% RH) was “Pattern 1”, the “HPLC Purity” value (7-day stability study; 40° C./75% RH) was 99.6 % Area and the XRPD (7-day stability study; 80° C.) was “Pattern 1”. The “HPLC Purity” value (7-day stability study; 80° C.) was 99.3 % Area, the XRPD (7-day stability study; Ambient temperature and light) was “Pattern 1” and the “HPLC Purity” value (7-day stability study; Ambient temperature and light) was 99.5 % Area. The “Stability under accelerated conditions” value (7-day stability study; one week, ambient temperature and light, 40° C./75% RH and 80° C.) was “considered stable”, the Salt disproportionation ([1]; deionized water, 24 h) was “no evidence of disproportionation” and the “Water pH Post-24 h” value ([1]; deionized water, 24 h, ambient temperature, listed as L-Tartrate Pattern 1) was 3.43. For the same compound, the “XRPD Result” value [1, 4] was “L-tartrate Pattern 2”, the “XRPD Result” value ([1]; listed as L-Tartrate Pattern 1) was “L-Tartrate Pattern 2” and the “Thermodynamic Solubility” value ([2]; Water) was 900 µg/mL. For the same compound, the “Thermodynamic Solubility” value ([2]; pH 1.0) was 300 µg/mL, the “HPLC Conc” value ([2]; pH 1.0, 24 h slurry) was 0.3 mg/mL and the “XRPD Result” value ([2]; pH 1.0, solid after 24 h slurry, listed as L-Tartrate Pattern 1) was “Possible HCl salt”. The “XRPD Result” value ([2]; pH 1.0, solid after 24 h slurry, listed as L-tartrate Pattern 1) was “possible HCl salt”, the “pH Post-24 h Slurry” value ([2]; pH 1.0, listed as L-Tartrate Pattern 1) was 1.87 and the “Thermodynamic Solubility” value ([2]; pH 4.5) was 300 µg/mL. For the same compound, the “HPLC Conc” value ([2]; pH 4.5, 24 h slurry, listed as L-Tartrate Pattern 1) was 0.3 mg/mL, the “XRPD Result” value ([2]; pH 4.5, solid after 24 h slurry, listed as L-Tartrate Pattern 1) was “Pattern 2” and the “pH Post-24 h Slurry” value ([2]; pH 4.5, listed as L-Tartrate Pattern 1) was 3.99. For the same compound, the “Thermodynamic Solubility” value ([2]; pH 6.8) was 200 µg/mL, the “HPLC Conc” value ([2]; pH 6.8, 24 h slurry) was 0.2 mg/mL and the “HPLC Conc” value ([2]; pH 6.8, 24 h slurry, listed as L-Tartrate Pattern 1) was 0.2 mg/mL. The “XRPD Result” value ([2]; pH 6.8, solid after 24 h slurry, listed as L-Tartrate Pattern 1) was “Pattern 2”, the “pH Post-24 h Slurry” value ([2]; pH 6.8, listed as L-Tartrate Pattern 1) was 4.43 and the “HPLC Conc” value ([2]; water, 24 h slurry, listed as L-Tartrate Pattern 1) was 0.9 mg/mL. The “XRPD Result” value ([2]; water, solid after 24 h slurry, listed as L-Tartrate Pattern 1) was “Pattern 2”, the “pH Post-24 h Slurry” value ([2]; water, listed as L-Tartrate Pattern 1) was 3.43 and the “XRPD Result” value (Hydration studies; Water Activity 0.281, water/acetone) was “Pattern 1”. The “XRPD Result” value (Hydration studies; Water Activity 0.637, water/acetone) was “Pattern 1”, the “XRPD Result” value (Hydration studies; Water activity 0.888, water/acetone, listed as L-Tartrate Pattern 1) was “Pattern 2 (hydrate)” and the “XRPD Result” value (Hydration studies; Water activity 0.888, water/acetone, listed as L-tartrate Pattern 1) was “L-tartrate Pattern 2”. For the same compound, the “Post-GVS XRPD” value ([3]; after GVS humidity cycles, listed as Formula I L-tartrate Pattern 1) was “no changes to the XRPD pattern; also recorded: no change in form”, the “Hygroscopicity, mass uptake (DVS/GVS)” value [3] was “Uptake of 0.6 wt %” and the “Hygroscopicity, mass uptake (DVS/GVS)” value [3, 4] was 0.6 wt %. For the same compound, the “Hygroscopic nature by GVS analysis” value ([3]; up to 90% RH) was “slightly hygroscopic”.
